The test system of assay [1] is SIRPα^−/− and CD47^−/− mice. Briefly: Acute anemia and splenomegaly in mice deficient of CD47-SIRPα-mediated inhibition under inflammatory conditions. To be noted: colitic SIRPα^−/− mice; 1% DSS, 10 days. The format is in vivo, mouse. The source says: FIGS. 1A-1K illustrate our assessment of acute anemia in mice deficient of CD47-SIRPα-mediated inhibition under inflammatory conditions. FIG. 1A includes a schematic drawing of a wild type (WT) and targeted allele of SIRPα (“SIRPα”) and data related to the generation of SIRPα “knock out” (KO) mice. […] Western blot (WB) analysis confirmed the depletion of SIRPα (˜120 kDa) protein in bone marrow leukocytes from SIRPα^−/− mice. FIG. 1B includes a photograph of intestinal tissue and a line graph charting the change in body weight of mice in which colitis had been induced by treatment with 1% or 2% DSS. […] FIGS. 1C and 1D include data related to acute anemia and splenomegaly developed in SIRPα^−/− mice with colitis. WT mice and SIRPα^−/− mice treated with DSS (2% DSS for WT and 1% DSS for SIRPα^−/−) for 10 days were analyzed for the presence of […] (FIG. 1C) and the content of hemoglobin in peripheral blood (FIG. 1D). FIG. 1E includes a panel of photomicrographs in which hematoxylin and eosin (H&E) was used to stain sections of spleens from WT and SIRPα^−/− mice treated with 2% and 1% DSS for 10 days. The bar graph of FIG. 1E illustrates the hemoglobin content in the spleens of WT and SIRPα^−/− mice treated with water or DSS. FIG. 1F is a pair of line graphs showing the time course over which anemia developed in SIRPα^−/− mice when colitis was induced with DSS and the levels of IL-17 in the serum over that same period of time. FIG. 1G is a diagram showing that IL-17 neutralization ameliorates anemia and splenomegaly in SIRPα^−/− mice with colitis. An anti-IL-17 antibody (10 μg, i.v.) was given on days 6 and 8 (arrows) during DSS-induction of colitis. FIG. 1H is a diagram showing that IL-17-containing colitic serum induces acute anemia in SIRPα^−/− mice. Serum samples collected from healthy (Ctl.) and colitic WT mice (2% DSS, 10 d) were administered to healthy SIRPα^−/− mice (i.v., 3×, arrows) with or without an anti-IL-17 antibody. FIGS. 1I and 1J are illustrative graphs showing that IL-17 directly induces acute anemia and splenomegaly in SIRPα^−/− mice and Cd47^−/− mice. Healthy mice were given recombinant IL-17 (10 μg/kg, i.v.) on days 1 and 3 (arrows, FIG. 1J); anemia and splenomegaly were analyzed on day 5 (FIG. 1I) or in a time course manner (FIG. 1J). FIG. 1K includes diagrams showing that acute anemia and splenomegaly in SIRPα^−/− and Cd47^−/− mice under zymosan-peritonitis (3×, every other day), IL-6 administration ([…], i.v.), LPS (0.25 mg/kg, i.p.), and CFA (1×, s.c.) administrations. Error bars are ±SEM **P<0.01, ***P<0.001 vs. control or the beginning time point. Data presented in each panel represent at least three independent experiments with n≥4, if applicable.
Hemoglobin assay: To assay blood hemoglobin, 10 μl of whole blood were obtained from the tail vein followed by lysis in 1 ml distilled water. After centrifugation (13,000 rpm, 30 min), the hemoglobin-containing supernatants were collected and measured for the optical density at the wavelength of 540 nm.
Animal inflammation models: To induce peritonitis, mice (6-8 wk, 20-22 g) were intraperitoneally injected with 0.5 mg zymosan A (Sigma) in 0.5 ml sterile PBS followed by euthanasia at 2, 4, 6 and 8 hours. […] The colitic condition was then assessed by observing diarrhea, measuring body weight loss, increases of inflammatory cytokines, the shortage of the large intestine and intestinal tissue analyses (after euthanasia). […]

In assay [2] the test system is CFSE-labeled CD47^+ or CD47^− RBCs in recipient mice. Kind of assay: RBC adoptive transfer and in vivo clearance of CFSE-labeled RBCs. Also noted: species or system mouse. Particulars: SIRPα^−/− mice; 1% DSS for 8 d or directly injected with IL-17; 24 h. The source says:
FIGS. 2A-2E includes data related to macrophage phagocytosis in vivo assessed by adoptive transfer experiments. FIGS. 2A-C are illustrative graphs showing clearance of adoptively transferred CD47-positive (Cd47^+) or CD47-negative (Cd47^−) RBC in recipient mice. […] Error bars are ±SEM. **P<0.01, ***P<0.001 vs. WT mice clearance of Cd47^+ RBCs. […] Mice treated with DSS (1% for SIRPα^−/− mice, 2% for WT and Cd47^−/− mice) for 8 d (d8) were transfused with CFSE-RBCs followed by determination of RBC clearance after 24 h. FACS data of Cd47^+ RBCs and Cd47^− RBCs in different mice at 30 min and 24 h after transfer were selectively shown. Total RBC phagocytosis was calculated based on the rates of CFSE-RBC clearance and the fact that SIRPα^−/− mice eliminate both Cd47^− RBC and Cd47^+ RBC, whereas WT mice and Cd47^−/− mice eliminate only Cd47^− RBCs. […] Mice treated once with IL-17 (10 μg/kg, i.v.) were transfused with CFSE-labeled Cd47^+ or Cd47^− RBCs a day later. Error bars are ±SEM. **P<0.01, ***P<0.001 vs. control or the initial time point. Data presented in each panel represent at least three independent experiments with n≥4, if applicable.
Adoptive transfer and in vivo clearance: CD47-expressing (CD47^+) RBC freshly collected from WT or SIRPα^−/− mice, and CD47-null (CD47^−) RBC collected from CD47^−/− mice were labeled with carboxyfluorescein succinimidyl ester (CFSE). After washing, about 1×10^9 RBC suspended in 200 μl sterile PBS were transfused into recipient mice by intravenous (i.v.) injection. Blood samples (5 μl) were then collected 30 min after the blood transfusion and the CFSE-labeled RBC in the circulation was assessed by FACS analyses. Blood samples (5 μl each) were then collected at later time points to assess the clearance of CFSE-labeled RBC as compared to that found at 30 min. For each sample, at least 50,000 RBC were examined by FACS. […] Clearance of CFSE-labeled cells in the circulation and the spleen were analyzed by FACS analyses of blood samples and splenocytes. […]

The next assay deals with Syk. Briefly: Syk phosphorylation at Y519/520 in PEMs. The format is cell-based, mouse. Here is the method:
FIGS. 5A-5H include data related to our experiments on the role of Syk in phagocytic activation. […] PEMs were treated with LPS and cytokines in the presence of various inhibitors. After washing, inhibitor-free macrophages were tested for phagocytosis toward RBCs. […] PEMs treated with LPS and activating cytokines, or together with IL-10, were tested for total Syk and phosphorylated Syk (Syk^pY, specific at Y519/520). FIG. 5D describes PMA-induced macrophages phagocytosis toward RBCs. WT and SIRPα^−/− PEMs were treated with PMA (37° C., 30 min) before testing phagocytosis toward RBCs. FIG. 5E is a schematic depiction of PKC-Syk-mediated macrophage phagocytic activation toward self. […] Left: Inhibition of Syk by piceatannol and R406 prevented PMA-induced phagocytic activation. […] Error bars are ±SEM. ***P<0.001 vs. the respective controls. […] LPS-treated WT PEMs were further briefly treated with pervanadate before testing for phagocytosis toward RBCs. Error bars are ±SEM. ***P<0.001 vs. the respective controls. […] Data presented in each panel represent at least three independent experiments with n≥4, if applicable.
Multiple pharmacological inhibitors were tested for their effects on LPS and cytokine-induced activation of macrophage phagocytosis toward self. […] For example, inhibition of JAKs blocked IL-6 and IL-17, but not LPS and TNFα, for activation of PEM phagocytosis. […]

The subject of assay [3] is splenic macrophages, PEMs and BMDMs. Briefly: Ex vivo macrophage phagocytosis toward RBCs and other self-cells after activation. The format is cell-based, mouse. Particulars: various concentrations of IL-10. Here is the method: FIGS. 3A-3H include data related to our experiments assaying macrophage phagocytosis ex vivo. FIGS. 3A and 3B show macrophage phagocytosis of RBCs. Freshly isolated splenic macrophages (MØ) and peritoneal macrophages (PEM) and in vitro-derived BMDM (bone marrow-derived macrophages) were tested for phagocytosis toward CFSE-labeled Cd47^+ or Cd47^− RBCs. […] FIGS. 3F and 3G illustrate LPS and IL-17-activated PEM phagocytosis toward splenocytes (FIG. 3F), B16, and EL4 (FIG. 3G). Error bars are ±SEM. **P<0.01, ***P<0.001 vs. no treatment controls. […] PEM lavaged without (ctl.) or with Brewer thioglycollate (3%, i.p.) elicitation was tested. Error bars are ±SEM. ***P<0.001 vs. control PEM. Data presented in each panel represent at least three independent experiments with n≥4, if applicable.
FIGS. 4A-4E include data related to our experiments on macrophage phagocytic plasticity. FIG. 4A is a panel of illustrative line graphs showing that IL-10 inhibits macrophage phagocytosis toward “self.” PEMs were treated with LPS and activating cytokines along with various concentrations of IL-10 before testing their ability to phagocytose RBCs. FIG. 4B illustrates the phagocytic plasticity of WT red pulp macrophages. […] Treatments of cultured macrophages with LPS and IL-17 re-elicited their phagocytosis toward RBCs. […] Error bars are ±SEM. ***P<0.001 vs. freshly isolated splenic macrophages. FIG. 4D includes microscopic images of RBC phagocytosis by LPS- and IL-17-treated splenic macrophages. […] WT PEMs treated with LPS or IL-17 were further treated with Cd47^+ RBCs or Cd47-AP (10 min, 37° C.) followed by cell lysis, SIRPα immunoprecipitation, and WB detection of SIRPα phosphorylation (SIRPα^pY) and SHP-1 association. Data presented in each panel represent at least three independent experiments with n≥4, if applicable.
Ex vivo macrophage phagocytosis: Mouse spleens were harvested and minced in cold HBSS followed by passing through nylon meshes. The spleen cells in suspensions were collected by centrifugation followed by washing. After lysis of RBC, splenocytes were plated in cell culture dishes in DMEM with 10% FBS and cultured for 2 h followed by removal of non-adherent cells. The adherent cells, ˜70% being macrophages as determined by anti-F4/80 staining, were tested for phagocytosis. For phagocytosis of RBC or other tissue cells, targeted cells were labeled with CFSE prior to addition into the macrophage-containing wells. Macrophages and target cells, at a ratio of 1:5-10 for RBC or 1:1-2 for other cells, were co-incubated for 30 min at 37° C. followed by gently washing. Macrophage phagocytosis of target cells was then analyzed by fluorescence microscopy and/or by FACS. To better recognize macrophages, macrophages in wells were labeled with an anti-F4/80 or an anti-CD11b antibody. Alternatively, the freshly isolated splenocytes in suspension were incubated with CFSE-labeled RBC and other phagocytic targets for 30 min at 37° C. Macrophage phagocytosis was then determined by FACS after labeling macrophages with anti-F4/80. To test phagocytosis of apoptotic cells, B16 cells were irradiated by UV for 150 seconds at 50 J/m^2 strength. Apoptosis was analyzed at 2, 4, 6, 8 and 18 h post UV irradiation by labeling of the cells with anti-phosphatidylserine (PS) antibody (data not shown) or FITC-conjugated annexin V (data not shown). Cells that were confirmed to be apoptotic were trypsinized, labeled with CFSE, and then co-incubated with macrophages for 30 min at 37° C. After gentle washing, phagocytosis was analyzed by fluorescence microscopy and/or FACS. To test phagocytosis of bacteria and the fungal product zymosan, AlexaFluor-conjugated E.coli strain […] (2 μl suspension, ˜2 μg) or zymosan bioparticles (1 μl suspension, ˜2 μg) (both from Invitrogen) were incubated with macrophages for 30 min followed by washing and analyses. Similar procedures were performed to test phagocytosis of macrophages from various sources. […]

On to dextran sodium sulfate [DSS], for which, in assay [1], the peripheral hemoglobin reduction was 40-50. Besides, the “clearance of transferred CD47^+ and CD47^− RBCs” value in assay [2] was roughly 50%.

B1: IL-10: phagocytic suppressive cytokine (protein, UniProt P22301 19-178, looked up)
Interleukin-10: SPGQGTQSENSCTHFPGNLPNMLRDLRDAFSRVKTFFQMKDQLDNLLLKESLLEDFKGYLGCQALSEMIQFYLEEVMPQAENQDPDIKAHVNSLGENLKTLRLRLRRCHRFLPCENKSKAVEQVKNAFNKLQEKGIYKAMSEFDIFINYIEAYMTMKIRN
In the case of B1, the “Syk phosphorylation (Syk^PY, Y519/520)” value with Syk was “counter-repressed Syk phosphorylation”. The “LPS-, IL-17-, IL-6-, TNFα-, and IL-1β-induced activation of PEM phagocytosis toward RBCs” value in assay [3] is given as “dose-dependently inhibited”.

The values above are taken from patent US11026972B2, “Methods for generating macrophages with enhanced cancer phagocytosis” (Georgia State University Research Foundation, Inc., priority 2016, dated 2021).
